EP4671240A1, “SALT CONTAINING AROMATIC RING DERIVATIVE ANTAGONIST, PREPARATION METHOD THEREFOR, AND APPLICATION THEREOF” (Jiangsu Hansoh Pharmaceutical Group Co., Ltd., priority 2023, dated 2024)
Counter-ions that a name gives are not always drawn.

Legend:
[1] = Solid stability experiment of crystal forms of salts; assay type: physicochemical; details: for XRPD: after treatment under light, high humidity, high temperature and 50°C/RH75%
Source text: To investigate the physical and chemical stability of crystal forms of the compound under high temperature, high humidity, high temperature and high humidity, and light conditions, thereby providing a basis for crystal form screening and storage.
4.1.3.1 Appropriate amounts of crystal form B of the hydrochloride salt, crystal form A of the methanesulfonic acid salt, crystal form A of the sulphuric acid salt, and crystal form A of the hydrobromic acid salt of the compound 4'-((2-butyl-4-oxo-1,3-diazaspiro[4.4]non-1-en-3-yl)methyl-d2)-N-(4-chloro-5-methylisoxazol-3-yl)-2'-(ethoxymethyl)-[1,1'-biphenyl]-2-sulfonamide were weighed and treated under light (5000±500lux), high humidity (25°C, 92.5%), high temperature (60°C), and 50°C±2°C/RH75%±5% for a certain period of time, and then their XRPD, purity and impurity content data were measured.
The maximum individual impurity increase for crystal form B of hydrochloride salt, crystal form A of methanesulfonic acid salt and crystal form A of sulphuric acid salt was determined by comparing Day 20 with Day 0, whereas for crystal form A of hydrobromic acid salt, it was determined by comparing Day 10 with Day 0.

[2] = Hygroscopicity experiment (dynamic vapor sorption); assay type: physicochemical
Source text: To investigate the hygroscopicity of crystal form B of the hydrochloride salt of the compound 4'-((2-butyl-4-oxo-1,3-diazaspiro[4.4]non-1-en-3-yl)methyl-d2)-N-(4-chloro-5-methylisoxazol-3-yl)-2'-(ethoxymethyl)-[1,1'-biphenyl]-2-sulfonamide under different relative humidity conditions, thereby providing a basis for compound crystal form screening and storage.
Crystal form B of the hydrochloride salt of the compound 4'-((2-butyl-4-oxo-1,3-diazaspiro[4.4]non-1-en-3-yl)methyl-d2)-N-(4-chloro-5-methylisoxazol-3-yl)-2'-(ethoxymethyl)-[1,1'-biphenyl]-2-sulfonamide was placed in saturated water vapor with different relative humidity to allow the compound and the water vapor to reach dynamic equilibrium, and the percentage of hygroscopic weight gain of the compound after equilibrium was calculated.

[3] = Liver microsomal metabolism stability assay (rat); assay type: in vitro ADME; details: rat liver microsomes, 60 min, compound 1 µM
Experimental: (§1) The objective of this experiment was to detect the stability of the example compounds in liver microsomes of rats, dogs and humans.
(§2) Formulation of compound working solution: compound stock solution was added to phosphate buffer to a final concentration of 20 µM.
(§3) Dilution was performed with 100 mM phosphate buffer to a final concentration of 0.625 mg/mL.
(§4) NADPH (reduced nicotinamide adenine dinucleotide phosphate) and UDPGA (uridine diphosphate glucuronic acid) were weighed, and 100 mM phosphate buffer was added to a final concentration of 20 mM.
(§5) 1 mg of Alamethicin was weighed, and 200 µL of DMSO was added to formulate a 5 mg/mL solution. Then dilution was performed with phosphate buffer to a final concentration of 50 µg/mL.
(§6) Stop solution: cold acetonitrile containing 100 ng/mL labetalol hydrochloride and 400 ng/mL tolbutamide as internal standards.
(§7) 400 µL of formulated liver microsomes, 25 µL of compound working solution and 25 µL of Alamethicin were added in sequence to a 96-well plate, and the mixture was pre-incubated at 37°C for 10 min. Then 50 µL of formulated NADPH/UDPGA was added to start the reaction and the mixture was incubated at 37°C. The total volume of the reaction system was 500 µL. The final contents of each component are as follows:
(§8) • Instrument: Shimadzu LC-30 AD; • Chromatographic column: XBridge® C18 (50*4.6 mm, 5 µm particle size); • Mobile phase: A: 0.1% formic acid solution, B: methanol • Elution gradient: 0.2-1.6 min 5% A to 95% A, 3.0-3.1 min 95% A to 5% A • Run time: 4.0 min.
(§9) • Instrument: API5500 liquid chromatography-mass spectrometer, AB Sciex; • Ion source: electrospray ionization source (ESI); • Drying gas: N2, temperature 500°C; • Electrospray voltage: 5000 V; • Detection mode: positive ion detection; • Scan mode: Multiple Reaction Monitoring (MRM) mode.

[4] = Liver microsomal metabolism stability assay (dog); assay type: in vitro ADME; details: dog liver microsomes, 60 min, compound 1 µM
Experimental: as §1, §2, §3, §4, §5, §6, §7, §8, §9

[5] = Liver microsomal metabolism stability assay (human); assay type: in vitro ADME; details: human liver microsomes, 60 min, compound 1 µM
Experimental: as §1, §2, §3, §4, §5, §6, §7, §8, §9

[6] = 50°C&75%RH, Day 20 compared with Day 0
[7] = high humidity 25°C, 92.5% RH, Day 20 compared with Day 0
[8] = high temperature 60°C, Day 20 compared with Day 0
[9] = light 5000±500lux, Day 20 compared with Day 0

Structure (SMILES) | Maximum individual impurity increase [1, 6] [%] | XRPD [1] | Maximum individual impurity increase [1, 7] [%] | Maximum individual impurity increase [1, 8] [%] | Maximum individual impurity increase [1, 9] [%] | hygroscopic weight gain ([2]; RH80%, 25°C, DVS) [%] | XRPD pattern after moisture absorption and desorption ([2]; after 2 cycles under 0-95% relative humidity) | Rat Remaining rate [3] [%] | Dog Remaining rate [4] [%] | Human Remaining rate [5] [%] | Maximum individual impurity increase ([1]; 50°C&75%RH, Day 10 compared with Day 0) [%] | Maximum individual impurity increase ([1]; high humidity 25°C, 92.5% RH, Day 10 compared with Day 0) [%] | Maximum individual impurity increase ([1]; high temperature 60°C, Day 10 compared with Day 0) [%]
[2H]C([2H])(c1ccc(-c2ccccc2S(=O)(=O)Nc2noc(C)c2Cl)c(COCC)c1)N1C(=O)C2(CCCC2)N=C1CCCC [Crystal form B of hydrochloride salt, 4'-((2-butyl-4-oxo-1,3-diazaspiro[4.4]non-1-en-3-yl)methyl-d2)-N-(4-chloro-5-methylisoxazol-3-yl)-2'-(ethoxymethyl)-[1,1'-biphenyl]-2-sulfonamide] | <0.01 | Crystal form unchanged | <0.01 | 0.02 | 0.04 | 0.378 | no change | – | – | – | – | – | –
[2H]C([2H])(OCC)c1cc(CN2C(=O)C3(CCCC3)N=C2CCCC)ccc1-c1ccccc1S(=O)(=O)Nc1noc(C)c1Cl [Example 4, 4'-((2-Butyl-4-oxo-1,3-diazospiro[4.4]non-1-en-3-yl)methyl)-N-(4-chloro-5-methylisoxazol-3-yl)-2'-(ethoxydeuteromethyl)-[1,1'-biphenyl]-2-sulfonamide] | – | – | – | – | – | – | – | 17.1 | 23.9 | 30.7 | – | – | –
[2H]C([2H])(c1ccc(-c2ccccc2S(=O)(=O)Nc2noc(C)c2Cl)c(COCC)c1)N1C(=O)C2(CCCC2)N=C1CCCC [Crystal form A of sulphuric acid salt, 4'-((2-butyl-4-oxo-1,3-diazaspiro[4.4]non-1-en-3-yl)methyl-d2)-N-(4-chloro-5-methylisoxazol-3-yl)-2'-(ethoxymethyl)-[1,1'-biphenyl]-2-sulfonamide] | 0.14 | Crystal form unchanged | 0.05 | 0.11 | 0.06 | – | – | – | – | – | – | – | –
[2H]C([2H])(c1ccc(-c2ccccc2S(=O)(=O)Nc2noc(C)c2Cl)c(COCC)c1)N1C(=O)C2(CCCC2)N=C1CCCC [Crystal form A of hydrobromic acid salt, 4'-((2-butyl-4-oxo-1,3-diazaspiro[4.4]non-1-en-3-yl)methyl-d2)-N-(4-chloro-5-methylisoxazol-3-yl)-2'-(ethoxymethyl)-[1,1'-biphenyl]-2-sulfonamide] | – | Crystal form unchanged | – | – | – | – | – | – | – | – | 0.02 | 0.02 | 0.05
[2H]C([2H])(c1ccc(-c2ccccc2S(=O)(=O)Nc2noc(C)c2Cl)c(COCC)c1)N1C(=O)C2(CCCC2)N=C1CCCC [Crystal form A of methanesulfonic acid salt] [4'-((2-butyl-4-oxo-1,3-diazaspiro[4.4]non-1-en-3-yl)methyl-d2)-N-(4-chloro-5-methylisoxazol-3-yl)-2'-(ethoxymethyl)-[1,1'-biphenyl]-2-sulfonamide] | 0.08 | Crystal form unchanged | <0.01 | 0.05 | 0.09 | – | – | – | – | – | – | – | –
